In brackets after ≈: the same amount, converted by molar mass. Like-named read-outs stand apart in the source and are kept apart here.
What was measured:
cMet enzyme = cMet enzyme (Homo sapiens, UniProt P08581); test: cMet Homogeneous Time Resolved Fluorescence (HTRF) in vitro assay; type: biochemical; details: relative IC50; read-out: c-Met IC50 (HTRF)
Source text: This assay is based on HTRF technology and it is used to detect the phosphorylation of biotin labeled tyrosine peptide by cMet enzyme. After the reaction is completed, XL665 labeled streptavidin is used to recognize the biotin unit and a Europium (Eu3+) labeled anti-phospho-tyrosine antibody is used to recognize the phosphorylated tyrosine. The detection process relies on the transfer of energy between the excited Eu3+ and the XL665 labeled streptavidin. The aim of this protocol is to calculate the ability of test compounds to inhibit the phosphorylation of the product of this reaction and calculate their relative IC50 values.
A reference compound, if desired, may be prepared as a 1 mM stock solution in 100% DMSO and test compounds are prepared as 10 mM stock solutions in 100% DMSO. 1 mM reference compound and 10 mM test compounds are pre-diluted to 8 μM and 80 μM 10% DMSO solutions in a 96-well dilution plate. Compounds are serially diluted (1:3) using Tecan Freedom EVO 200 and 10-point dilution curves are generated for each of the compounds tested. 10 μL of serially diluted compounds are transferred to a 96-well assay plate using Temo (Tecan). […] The assay plate is incubated at RT for 60 min before reading the fluorescence signals at 620 nm emission and 665 nm […] in a Victor3 instrument (PerkinElmer Corporation). […]

Dynamic solubility = type: physicochemical; details: for solubility at 18 h: thermodynamic from solid
Method: The media included simulated gastric fluid (SGF) which comprise of 0.01N HCl, 0.05% sodium lauryl sulfate, and 0.2% NaCl; fasted state simulated intestinal fluid (SIF-fasted) which composed of 29 mM NaH2PO4, 3 mM Na taurocholate, 0.75 mM lecithin, 103 mM NaCl, and NaOH to pH 6.5; fed state simulated intestinal fluid (SIF-fed) which comprise of 144 mM acetic acid, 15 mM Na taurocholate, 3.75 mM lecithin, 204 mM NaCl, and NaOH to pH 5.0; and pH 4.5, 6, 7.5 buffers which are 28-56 mM phosphate buffers. The compound concentrations are determined using Agilent 1200 HPLC (LC5) with a UV detector. Mobile phase uses A (85%) which is water containing 0.1% TFA and B (15%) which is ACN at a flow rate of 1 mL/min and run time of 10 min. Column of Zorbax, Bonus-RP (3.5 μm, 4.6×75 mm; SN: USTM002428) is used in the studies.

Sequence of cMet enzyme (P08581 25-1390): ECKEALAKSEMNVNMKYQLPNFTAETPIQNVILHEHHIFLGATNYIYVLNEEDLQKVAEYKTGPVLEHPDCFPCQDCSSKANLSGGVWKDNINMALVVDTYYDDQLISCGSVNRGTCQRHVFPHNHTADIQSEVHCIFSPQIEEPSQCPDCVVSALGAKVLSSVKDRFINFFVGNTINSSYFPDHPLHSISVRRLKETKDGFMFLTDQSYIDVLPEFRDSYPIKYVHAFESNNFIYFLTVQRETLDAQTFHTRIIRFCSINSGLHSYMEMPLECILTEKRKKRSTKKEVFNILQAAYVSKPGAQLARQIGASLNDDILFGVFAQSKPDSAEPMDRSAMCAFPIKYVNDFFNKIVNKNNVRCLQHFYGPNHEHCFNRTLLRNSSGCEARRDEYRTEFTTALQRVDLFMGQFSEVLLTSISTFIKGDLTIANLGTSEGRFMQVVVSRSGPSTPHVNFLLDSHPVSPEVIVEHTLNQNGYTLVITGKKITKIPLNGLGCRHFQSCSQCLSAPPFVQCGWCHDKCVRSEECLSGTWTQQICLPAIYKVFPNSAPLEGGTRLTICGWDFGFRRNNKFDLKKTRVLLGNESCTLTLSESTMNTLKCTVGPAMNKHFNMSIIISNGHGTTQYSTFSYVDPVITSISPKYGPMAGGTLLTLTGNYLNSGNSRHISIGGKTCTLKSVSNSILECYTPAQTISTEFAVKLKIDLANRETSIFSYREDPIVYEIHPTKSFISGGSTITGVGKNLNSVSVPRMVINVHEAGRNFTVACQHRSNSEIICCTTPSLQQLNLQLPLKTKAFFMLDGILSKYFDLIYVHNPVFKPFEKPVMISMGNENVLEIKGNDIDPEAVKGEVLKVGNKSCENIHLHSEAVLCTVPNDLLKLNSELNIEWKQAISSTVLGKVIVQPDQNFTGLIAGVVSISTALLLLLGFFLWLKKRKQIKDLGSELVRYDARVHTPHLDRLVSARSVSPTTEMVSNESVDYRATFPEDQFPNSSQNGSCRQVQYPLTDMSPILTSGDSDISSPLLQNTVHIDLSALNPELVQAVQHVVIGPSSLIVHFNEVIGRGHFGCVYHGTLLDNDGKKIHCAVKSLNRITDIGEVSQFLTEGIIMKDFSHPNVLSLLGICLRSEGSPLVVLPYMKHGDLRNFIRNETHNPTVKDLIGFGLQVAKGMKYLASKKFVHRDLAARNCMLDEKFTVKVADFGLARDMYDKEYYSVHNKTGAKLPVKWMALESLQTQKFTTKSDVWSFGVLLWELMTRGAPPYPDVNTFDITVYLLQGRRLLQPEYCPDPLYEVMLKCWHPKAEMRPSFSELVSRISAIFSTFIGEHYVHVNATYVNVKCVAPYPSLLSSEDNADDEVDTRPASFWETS

Cn1cc(-c2ccc3nnc(Sc4ccc5nn(C)cc5c4)n3n2)cn1 [Example 1, 6-(1-Methyl-1H-pyrazol-4-yl)-3-(2-methyl-2H-indazol-5-ylthio)-[1,2,4]triazolo[4,3-b]pyridazine]
IC50 (cMet enzyme): 10 nM
solubility at 18 h (Dynamic solubility; 0.01N HCl, simulated gastric fluid, read-out: Dynamic solubility, 0.01N HCl): 11 µg/mL (≈ 30.4 µM)
solubility at 18 h (Dynamic solubility; 0.1N HCl, simulated gastric fluid, read-out: Dynamic solubility, 0.1N HCl): 33 µg/mL (≈ 91.1 µM)
fold more soluble than the reference compound, SIF fasted (Dynamic solubility; SIF fasted state): approximately 13 fold
fold more soluble than the reference compound, SIF fed (Dynamic solubility; SIF fed state): ~14 fold
solubility at 18 h (Dynamic solubility; aqueous buffer, pH ≧ 4 phosphate buffer, read-out: Dynamic solubility, pH ≧ 4 buffer): ~10 µg/mL (≈ 27.6 µM)
solubility at 18 h (Dynamic solubility; fassif, fasted state simulated intestinal fluid pH 6.5, 18 h ambient, read-out: Dynamic solubility, SIF Fasted): 13 µg/mL (≈ 35.9 µM)
solubility at 18 h (Dynamic solubility; fessif, fed state simulated intestinal fluid pH 5.0, 18 h ambient, read-out: Dynamic solubility, SIF Fed): 70 µg/mL (≈ 193 µM)
solubility at 18 h (Dynamic solubility; simulated gastric fluid, 18 h ambient, read-out: Dynamic solubility, SGF): 52 µg/mL (≈ 143 µM)
solubility at 18 h (Dynamic solubility; water, read-out: Dynamic solubility, Water): 9 µg/mL (≈ 24.8 µM)

— US8268836B2, “Compound useful as a c-Met inhibitor” (Eli Lilly and Company, priority 2010, dated 2012)
